In patent publication US7417036B2, “Crystal form of adefovir dipivoxil and its preparation” (Tianjin Kinsly Pharmaceutical Co. Ltd., priority 2002, dated 2008):
Where “and” joins values, the source holds several entries; their conditions need not be identical. Identical values can stand only once.

Test: Kinetic studies of the plasma concentration in animals with different crystalline forms of AD (oral, monkeys; adefovir measured in serum by HPLC)
Format: in vivo, Macaques
Details: 20 mg/kg, 20 mg/kg
Experimental: The experiment was carried out by orally administering to monkeys the drugs in order to investigate the in vivo absorption of two crystalline forms of AD: the novel crystalline AD of the present invention produced by Tianjin Kinsly pharmaceutical R & D Co. Ltd. and crystalline form I of AD prepared according to the method of GILEAD SCIENCES INC. The experiment provides useful clinical references for the application of novel crystalline AD.
Tablets of novel crystalline form of AD, white, each of which contains 10 mg of adefovir, Tianjin Kinsly pharmaceutical R&D Co. Ltd., batch number 020320.
Tablets of AD crystalline form I, white, each of which contains 10 mg of adefovir, Tianjin Kinsly pharmaceutical R&D Co. Ltd., batch number 020225.
Macaques, weighing from 5 kg to 8 kg (certificate No: 2001-03, approved by Beijing Forestry Administration in the document of [2001] 83) were provided by Xie'er Animal Health Caring Science and Technology Co. Ltd (Beijing, P. R. China).
As the pro-drug of adefovir, AD is the bis-pivaloyloxymethyl ester of adefovir, which increases the in vivo bioavailability of orally administered adefovir. AD can be rapidly metabolized into PMEA, rendering it undetectable in blood. Thus the concentration of its parent compound was measured.
Mobile phase: 0.2% phosphoric acid-methanol-B7 (97:3:0.5) degassed and filtrated through 0.45 μm milipore filter.
Stationary phase: C18-column (4.6×250 mm) packed with 5μ fillers, Tianjin Tianhe Chromatogram Inc, the column temperature from 18° C. to 22° C.
Detection: the UV detection wavelength λ=260 nm (0.01AUFS)
A given volume of serum was taken and an equal volume of 10% trichloroacetic acid was added. The mixture was shaken thoroughly and kept still for more than 30 min to precipitate the proteins, then centrifuged at 10000 rpm for 2 min. The precipitates were separated and 30 μL of the supernat was removed for injection.
The experiment was started one week after intestinal worms were dispelled from the animals. Eight animals were randomly assigned into two groups, each consisting of four animals. The animals were fasted for 12 h and were orally administered the novel crystalline form of AD for one group or crystalline form I of AD for another group at a dose of 20 mg/kg together with 200 ml of water. 2 hours after administration, the animals were fed in a fixed quantity. 2.0 ml samples of whole blood were collected from the elbow veins before administration and 10, 20, 30, 45 min and 1, 2, 4, 6, 8, 12, and 24 h after administration. The serum was separated and freeze-stored for measurement. A cross-experiment was done similarly 2 weeks later.
The pharmacokinetic parameters were calculated based on the plasma concentrations at different time points. The time to peak concentration (Tpeak) and the maximum concentration (Cmax) used the measured value. The terminal phase elimination rate constant (Ke) was obtained by fitting the linear section of the curve of logarithm of the plasma concentration of drug in terminal phase versus time and the terminal phase clearance half life time (T1/2) was calculated by dividing 0.693 by Ke. AUC0-t was calculated according to the trapezoid rule.
Apparent volume of distribution (Vd)=dosage/(AUCXKe);
Total Clearance (CL)=dosage/AUC.
Comparison of the data of the two crystalline form: Data of Cmax, Ke, T1/2 and AUC0-t were statistically processed by t test, while Tpeak was processed by non-parametric test. In addition, Comparison of bio-equivalence was carried out based on Cmax and AUC0-t by using two one-sided t test.
Eight macaques were assigned into two groups, group for the novel crystalline form and the group for crystalline form I. The animals were administered according to an open randomized crossover scheme. Afterward, adefovir concentrations in serum were measured at the predetermined time points. […]

[1] = adefovir, oral 20 mg/kg, macaques, average of 8 animals (ASD row)
[2] = adefovir, oral 20 mg/kg, macaques, average of 8 animals
[3] = adefovir, oral 20 mg/kg, macaques, individual animal No. 1-8

CC(C)(C)C(=O)OCOP(=O)(COCCn1cnc2c(N)ncnc21)OCOC(=O)C(C)(C)C [novel crystalline form]
Adefovir concentrations in serum (Plasma concentrations versus time), average (0.167 h after oral administration, macaques, average of 8 animals (ASD row)): 74.3 ng/mL
Adefovir concentrations in serum (Plasma concentrations versus time) (0.167 h after oral administration, macaques, individual animal No. 1-8): 51.8 ng/mL and 105.0 ng/mL and 103.9 ng/mL and 78.3 ng/mL and 64.9 ng/mL and 53.2 ng/mL and 60.0 ng/mL and 76.9 ng/mL
Adefovir concentrations in serum (Plasma concentrations versus time), average (0.333 h after oral administration, macaques, average of 8 animals (ASD row)): 201.4 ng/mL
Adefovir concentrations in serum (Plasma concentrations versus time) (0.333 h after oral administration, macaques, individual animal No. 1-8): 186.7 ng/mL and 258.5 ng/mL and 248.8 ng/mL and 190.1 ng/mL and 125.9 ng/mL and 154.1 ng/mL and 176.3 ng/mL and 270.7 ng/mL
Adefovir concentrations in serum (Plasma concentrations versus time), average (0.5 h after oral administration, macaques, average of 8 animals (ASD row)): 507.4 ng/mL
Adefovir concentrations in serum (Plasma concentrations versus time) (0.5 h after oral administration, macaques, individual animal No. 1-8): 952.4 ng/mL and 403.1 ng/mL and 398.3 ng/mL and 541.8 ng/mL and 396.0 ng/mL and 448.9 ng/mL and 529.4 ng/mL and 389.5 ng/mL
Adefovir concentrations in serum (Plasma concentrations versus time), average (0.75 h after oral administration, macaques, average of 8 animals (ASD row)): 392.0 ng/mL
Adefovir concentrations in serum (Plasma concentrations versus time) (0.75 h after oral administration, macaques, individual animal No. 1-8): 507.6 ng/mL and 306.8 ng/mL and 538.7 ng/mL and 360.6 ng/mL and 278.8 ng/mL and 195.6 ng/mL and 393.7 ng/mL and 55.0 ng/mL
Adefovir concentrations in serum (Plasma concentrations versus time), average (1 h after oral administration, macaques, average of 8 animals (ASD row)): 238.8 ng/mL
Adefovir concentrations in serum (Plasma concentrations versus time) (1 h after oral administration, macaques, individual animal No. 1-8): 260.3 ng/mL and 231.8 ng/mL and 374.7 ng/mL and 269.4 ng/mL and 233.5 ng/mL and 132.7 ng/mL and 273.4 ng/mL
Adefovir concentrations in serum (Plasma concentrations versus time), average (2 h after oral administration, macaques, average of 8 animals (ASD row)): 199.3 ng/mL
Adefovir concentrations in serum (Plasma concentrations versus time) (2 h after oral administration, macaques, individual animal No. 1-8): 221.6 ng/ml and 196.1 ng/ml (2×) and 241.4 ng/ml and 117.7 ng/ml and 105.3 ng/ml and 260.3 ng/ml
Adefovir concentrations in serum (Plasma concentrations versus time), average (4 h after oral administration, macaques, average of 8 animals (ASD row)): 157.3 ng/mL
Adefovir concentrations in serum (Plasma concentrations versus time) (4 h after oral administration, macaques, individual animal No. 1-8): 205.1 ng/mL and 140.9 ng/mL and 184.8 ng/mL and 198.9 ng/mL and 175.8 ng/mL and 85.0 ng/mL and 77.2 ng/mL and 191.0 ng/mL
Adefovir concentrations in serum (Plasma concentrations versus time), average (6 h after oral administration, macaques, average of 8 animals (ASD row)): 119.7 ng/mL
Adefovir concentrations in serum (Plasma concentrations versus time) (6 h after oral administration, macaques, individual animal No. 1-8): 177.0 ng/mL and 114.5 ng/mL and 95.2 ng/mL and 141.2 ng/mL and 141.3 ng/mL and 85.9 ng/mL and 57.3 ng/mL and 145.3 ng/mL
Adefovir concentrations in serum (Plasma concentrations versus time), average (8 h after oral administration, macaques, average of 8 animals (ASD row)): 102.7 ng/mL
Adefovir concentrations in serum (Plasma concentrations versus time) (8 h after oral administration, macaques, individual animal No. 1-8): 158.9 ng/mL and 96.9 ng/mL and 112.0 ng/mL and 89.4 ng/mL and 110.7 ng/mL and 79.0 ng/mL and 55.6 ng/mL and 119.2 ng/mL
Adefovir concentrations in serum (Plasma concentrations versus time), average (12 h after oral administration, macaques, average of 8 animals (ASD row)): 70.3 ng/mL
Adefovir concentrations in serum (Plasma concentrations versus time) (12 h after oral administration, macaques, individual animal No. 1-8): 112.6 ng/mL and 82.1 ng/mL and 46.1 ng/mL and 64.5 ng/mL and 44.8 ng/mL and 59.4 ng/mL and 80.5 ng/mL and 72.2 ng/mL
Adefovir concentrations in serum (Plasma concentrations versus time), average (24 h after oral administration, macaques, average of 8 animals (ASD row)): 51.7 ng/mL
Adefovir concentrations in serum (Plasma concentrations versus time) (24 h after oral administration, macaques, individual animal No. 1-8): 99.3 ng/mL and 76.3 ng/mL and 28.3 ng/mL and 53.1 ng/mL and 36.6 ng/mL and 41.6 ng/mL and 59.4 ng/mL and 19.2 ng/mL
Vd (adefovir apparent volume of distribution, oral 20 mg/kg, macaques, individual animal No. 1-8): 147.5 L and 211.8 L and 89.1 L and 115.1 L and 112.4 L and 265.9 L and 224.6 L and 67.1 L
CL, average [1]: 8601.4 mL/h
Ke, average [1]: 0.066 L/h
T1/2, average [1]: 12.5 h
Tpeak, average [1]: 0.56 h
Vd, average [1]: 154.2 L
AUC0-t, average [2]: 2426.4 ng·h/mL
Cmax, average [2]: 545.7 ng/mL
AUC0-t, average (adefovir, oral 20 mg/kg, macaques, average of 8 animals, listed as Novel form): 2426 ng·h/mL
AUC0-t [3]: 3593.4 ng·h/mL and 2567.8 ng·h/mL and 2318.3 ng·h/mL and 2554.7 ng·h/mL and 2162.8 ng·h/mL and 1735.9 ng·h/mL and 1921.2 ng·h/mL and 2556.8 ng·h/mL
Cmax [3]: 403.1 ng/mL and 538.7 ng/mL and 541.8 ng/mL and 396.3 ng/mL and 448.9 ng/mL and 529.4 ng/mL and 555.0 ng/mL
T1/2 [3]: 18.4 h and 18.8 h and 7.2 h and 10.2 h and 8.4 h and 16.0 h and 14.9 h and 5.9 h
Tpeak [3]: 0.50 h (6×) and 0.75 h (2×)
Cmax (adefovir, oral 20 mg/kg, macaques, individual animal No. 1-8, listed as Novel form): 952.4 ng/mL and 396.2 ng/mL and 448.8 ng/mL
average AUCO-T (adefovir, oral 20 mg/kg): 2426.37 ng·h/mL
average Tpeak (adefovir, oral 20 mg/kg): 0.56 h
average apparent volume of distribution (Vc) (adefovir, oral 20 mg/kg): 19.74 L
average elimination half-life time (adefovir, oral 20 mg/kg): 12.5 h
average peak concentration (adefovir, oral 20 mg/kg): 545.69 ng/mL
